Data set [1] addresses Epidermal growth factor receptor (Homo sapiens, UniProt P00533).
In data set [2] the target is Receptor tyrosine-protein kinase erbB-2 (Homo sapiens, UniProt P04626). The data set can be described thus: Inhibition of ErbB2.
In another data set the test system is BT-474. The data set can be described thus: Antiproliferative activity against human BT474 cell line.
The subject of a further data set is HFF. The data set can be described thus: Antiproliferative activity against human HFF cell line.
Another data set deals with HN5. The data set can be described thus: Antiproliferative activity against human HN5 cell line.
Data set [3] is described as follows: Permeability in PAMPA. Format: ADME. The conditions noted are these: read-out: permeability.

Chain of Receptor tyrosine-protein kinase erbB-2 (P04626 whole entry): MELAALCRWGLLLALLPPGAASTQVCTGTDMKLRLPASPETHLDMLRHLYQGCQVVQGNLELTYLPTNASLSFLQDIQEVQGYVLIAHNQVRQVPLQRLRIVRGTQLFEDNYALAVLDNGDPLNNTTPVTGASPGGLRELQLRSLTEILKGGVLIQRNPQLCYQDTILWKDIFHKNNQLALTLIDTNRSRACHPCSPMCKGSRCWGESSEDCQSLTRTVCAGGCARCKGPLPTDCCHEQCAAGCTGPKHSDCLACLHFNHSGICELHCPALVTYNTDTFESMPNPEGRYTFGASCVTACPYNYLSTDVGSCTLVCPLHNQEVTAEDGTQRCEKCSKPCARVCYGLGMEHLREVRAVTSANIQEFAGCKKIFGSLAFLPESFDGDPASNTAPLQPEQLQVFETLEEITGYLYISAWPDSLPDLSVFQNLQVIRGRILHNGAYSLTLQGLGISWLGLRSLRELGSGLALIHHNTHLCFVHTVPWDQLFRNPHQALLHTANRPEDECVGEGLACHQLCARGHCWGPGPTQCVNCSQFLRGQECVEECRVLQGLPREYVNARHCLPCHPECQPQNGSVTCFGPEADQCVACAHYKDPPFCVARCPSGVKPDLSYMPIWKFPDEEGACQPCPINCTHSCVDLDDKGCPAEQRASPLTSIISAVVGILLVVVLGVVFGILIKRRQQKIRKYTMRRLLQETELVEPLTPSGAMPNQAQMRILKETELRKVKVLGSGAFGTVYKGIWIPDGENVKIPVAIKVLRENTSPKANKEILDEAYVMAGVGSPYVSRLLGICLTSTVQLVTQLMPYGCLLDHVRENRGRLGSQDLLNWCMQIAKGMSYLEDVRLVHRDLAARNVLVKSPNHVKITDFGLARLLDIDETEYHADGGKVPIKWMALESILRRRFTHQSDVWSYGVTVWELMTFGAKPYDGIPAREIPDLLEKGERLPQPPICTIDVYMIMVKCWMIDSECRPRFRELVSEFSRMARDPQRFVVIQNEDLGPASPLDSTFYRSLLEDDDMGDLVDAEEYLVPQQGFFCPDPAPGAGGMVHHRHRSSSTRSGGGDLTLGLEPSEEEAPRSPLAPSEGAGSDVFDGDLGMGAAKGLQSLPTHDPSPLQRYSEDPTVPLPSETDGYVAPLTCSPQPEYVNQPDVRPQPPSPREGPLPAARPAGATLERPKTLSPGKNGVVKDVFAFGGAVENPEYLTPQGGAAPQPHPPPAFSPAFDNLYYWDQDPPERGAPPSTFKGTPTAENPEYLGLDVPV
Chain of Epidermal growth factor receptor (P00533 whole entry): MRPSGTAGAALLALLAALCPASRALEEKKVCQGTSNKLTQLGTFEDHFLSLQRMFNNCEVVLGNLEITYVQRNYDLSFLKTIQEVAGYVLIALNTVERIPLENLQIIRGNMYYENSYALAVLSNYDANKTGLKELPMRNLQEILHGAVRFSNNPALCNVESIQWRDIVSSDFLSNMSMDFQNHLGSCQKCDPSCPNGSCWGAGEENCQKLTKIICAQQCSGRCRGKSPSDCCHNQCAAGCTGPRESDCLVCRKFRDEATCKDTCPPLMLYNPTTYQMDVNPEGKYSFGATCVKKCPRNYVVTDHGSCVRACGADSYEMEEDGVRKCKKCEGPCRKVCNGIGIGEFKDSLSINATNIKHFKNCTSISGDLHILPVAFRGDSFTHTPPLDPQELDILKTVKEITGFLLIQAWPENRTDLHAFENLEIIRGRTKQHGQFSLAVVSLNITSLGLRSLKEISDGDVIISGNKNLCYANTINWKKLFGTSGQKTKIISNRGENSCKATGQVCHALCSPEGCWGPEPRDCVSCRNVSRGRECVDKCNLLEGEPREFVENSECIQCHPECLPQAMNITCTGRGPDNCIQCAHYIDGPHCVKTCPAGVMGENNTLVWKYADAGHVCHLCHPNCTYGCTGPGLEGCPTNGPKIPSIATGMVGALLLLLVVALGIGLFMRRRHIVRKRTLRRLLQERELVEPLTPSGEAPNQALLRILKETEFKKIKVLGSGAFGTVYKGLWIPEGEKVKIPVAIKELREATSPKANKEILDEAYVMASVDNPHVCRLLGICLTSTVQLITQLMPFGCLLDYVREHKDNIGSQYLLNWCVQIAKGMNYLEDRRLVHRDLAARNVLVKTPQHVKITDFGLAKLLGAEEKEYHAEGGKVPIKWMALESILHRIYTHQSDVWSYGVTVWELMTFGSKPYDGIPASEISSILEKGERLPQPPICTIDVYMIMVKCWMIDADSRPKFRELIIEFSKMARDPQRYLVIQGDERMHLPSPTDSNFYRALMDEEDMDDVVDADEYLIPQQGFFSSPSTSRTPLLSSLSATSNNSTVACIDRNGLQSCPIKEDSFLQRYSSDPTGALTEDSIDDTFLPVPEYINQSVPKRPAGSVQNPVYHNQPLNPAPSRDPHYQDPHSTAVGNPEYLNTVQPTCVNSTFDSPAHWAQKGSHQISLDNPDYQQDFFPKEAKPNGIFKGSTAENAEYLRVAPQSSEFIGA

The term IC50 denotes the midpoint of a concentration-inhibition curve. For `CS(=O)(=O)CCC(=O)Nc1cccc(C#Cc2cncnc2Nc2ccc(OCc3cccc(F)c3)c(Cl)c2)c1`, the IC50 in data set [1] stood at 50 nM; in data set [2] it was 32 nM.

For the compound `OCc1cccc(C#Cc2cncnc2Nc2ccc(OCc3cccc(F)c3)c(Cl)c2)n1`, the 50% inhibitory concentration (IC50) was 13 nM in data set [2], 5790 nM in the data set on BT-474 and > 30000 nM in the data set with HFF.

Take `OCc1ccc(C#Cc2cncnc2Nc2ccc(OCc3cccc(F)c3)c(Cl)c2)o1`: the half-maximal inhibitory concentration (IC50) in data set [1] was 33 nM; in the data set on HN5, 930 nM; in data set [2], 47 nM; in the data set on BT-474, 2040 nM; in the data set with HFF, 15800 nM.

For the compound `CC(=O)NCc1cccc(C#Cc2cncnc2Nc2ccc(OCc3cccc(F)c3)c(Cl)c2)c1` [GW807930X], the concentration for half-maximal inhibition (IC50) in data set [1] was 60 nM; in data set [2] it was 52 nM.

Regarding `Fc1cccc(COc2ccc(Nc3ncncc3C#Cc3ccccn3)cc2Cl)c1`, the figures for the IC50 in data set [1] and in data set [2] were 17 nM and 55 nM, respectively.

Regarding `Nc1ccc(C#Cc2cncnc2Nc2ccc(OCc3cccc(F)c3)c(Cl)c2)cc1` [GW659893X], the concentration for half-maximal inhibition (IC50) in data set [1] was 30 nM; in data set [2] it was 36 nM.

For `Fc1cccc(COc2ccc(Nc3ncncc3C#Cc3cc[nH]n3)cc2Cl)c1`, the IC50 amounted to 42 nM in data set [1] and 66 nM in data set [2].

Turning to `OCc1nc(C#Cc2cncnc2Nc2ccc(OCc3cccc(F)c3)c(Cl)c2)cs1`, the half-inhibitory concentration (IC50) in data set [1] came out at 76 nM; in data set [2] it was 160 nM.

Take `Fc1cccc(COc2ccc(Nc3ccncn3)cc2Cl)c1`: the half-inhibitory concentration (IC50) in data set [1] was determined as 320 nM; in data set [2], 21000 nM.

Regarding `Fc1cccc(COc2ccc(Nc3ncncc3C#Cc3ncccn3)cc2Cl)c1`, the half-maximal inhibitory concentration (IC50) in data set [1] stood at 77 nM; in data set [2], 60 nM.

As for `NCc1cccc(C#Cc2cncnc2Nc2ccc(OCc3cccc(F)c3)c(Cl)c2)n1`, the values for the IC50 in data set [1] and in data set [2] were 21 nM and 38 nM, respectively.

Consider `Nc1cccc(C#Cc2cncnc2Nc2ccc(OCc3cccc(F)c3)c(Cl)c2)c1`, for which the IC50 in data set [1] came to 42 nM; in data set [2] it was 44 nM.

In data set [2], `Nc1nccc(C#Cc2cncnc2Nc2ccc(OCc3cccc(F)c3)c(Cl)c2)n1` [GW799251X] returned an IC50 of 12 nM.

For `CNC(=O)c1cccc(C#Cc2cncnc2Nc2ccc(OCc3cccc(F)c3)c(Cl)c2)c1` [GW772405X], the figures for the 50% inhibitory concentration (IC50) in data set [1] and in data set [2] were 79 nM and 32 nM, respectively.

For the compound `CC(=O)Nc1cccc(C#Cc2cncnc2Nc2ccc(OCc3cccc(F)c3)c(Cl)c2)n1` [GW794726X], the IC50 was 91 nM in data set [1] and 59 nM in data set [2].

As for `C#Cc1cncnc1Nc1ccc(OCc2cccc(F)c2)c(Cl)c1`, the IC50 in data set [1] was 85 nM; in data set [2], 3800 nM.

Consider `Nc1ccccc1C#Cc1cncnc1Nc1ccc(OCc2cccc(F)c2)c(Cl)c1`, for which the IC50 in data set [1] was 63 nM; in data set [2], 91 nM.

On to `CS(=O)(=O)CCNC(=O)NCc1cccc(C#Cc2cncnc2Nc2ccc(OCc3cccc(F)c3)c(Cl)c2)n1`, for which the IC50 is 15 nM in data set [1]; 770 nM with HN5; 9 nM in data set [2]; 840 nM in the data set with BT-474; > 30000 nM in the data set on HFF.

With `CS(=O)(=O)Nc1cccc(C#Cc2cncnc2Nc2ccc(OCc3cccc(F)c3)c(Cl)c2)c1`, the results for the IC50 in data set [1] and in data set [2] were 110 nM and 45 nM, respectively.

Regarding `CC(=O)Nc1cccc(C#Cc2cncnc2Nc2ccc(OCc3cccc(F)c3)c(Cl)c2)c1` [GW703087X], the IC50 in data set [1] was 12 nM; with HN5, 13700 nM; in data set [2], 13 nM; with BT-474, 21600 nM; in the data set on HFF it was > 30000 nM. For the same compound, the Papp in data set [3] was < 0.3 ×10⁻⁶ cm/s.

For `CC(=O)Nc1ccc(C#Cc2cncnc2Nc2ccc(OCc3cccc(F)c3)c(Cl)c2)cc1`, the IC50 amounted to 25100 nM in data set [1] and 1820 nM in data set [2].

In the case of `Fc1cccc(COc2ccc(Nc3ncncc3C#Cc3cccnc3)cc2Cl)c1`, the 50% inhibitory concentration (IC50) in data set [1] was found to be 74 nM; in data set [2] it was 140 nM.

Regarding `COC(=O)CCCC(=O)Nc1cccc(C#Cc2cncnc2Nc2ccc(OCc3cccc(F)c3)c(Cl)c2)c1`, the IC50 in data set [1] came to 31 nM; in the data set on HN5 it was 3470 nM; in data set [2] it was 29 nM; with BT-474, 4240 nM; with HFF, 22400 nM.

On to `Fc1cccc(COc2ccc(Nc3ncncc3C#Cc3ccccc3)cc2Cl)c1` [GW651576X], for which the half-maximal inhibitory concentration (IC50) in data set [1] is 79 nM; in data set [2], 780 nM.

On to `CNC(=O)NCc1cccc(C#Cc2cncnc2Nc2ccc(OCc3cccc(F)c3)c(Cl)c2)n1`, for which the figures for the IC50 in data set [1] and in data set [2] were 23 nM and 69 nM, respectively.

These data come from ChEMBL document CHEMBL1147004, “Alkynyl pyrimidines as dual EGFR/ErbB2 kinase inhibitors” (Bioorg Med Chem Lett, 2006).
